Patent publication US20240335443A1, “IMIDAZOLOPYRIDAZINE OR PYRAZOLOPYRIMIDINE COMPOUNDS AND COMPOSITIONS” (Anrui Biomedical Technology (Guangzhou) Co., Ltd., priority 2021, published 2024)
Read-outs that look alike come from different tables or passages of the source.

Tests used:
[1] = test system: IL-23 induced STAT3 in HEK-Blue™ IL-23 cells; assay: IL-23 induced STAT3 QUANTI-Blue reporter assay in HEK-Blue IL-23 cells; format: cell-based; conditions: IL-23 0.1 ng/mL, SEAP levels, class symbols, read-out: IL23 reporter assay (IC50 nM)
Experimental: Biological Example 2. IL-23 Induced STAT3 QUANTI-Blue in HEK-Blue™ IL-23 Cells
HEK-Blue™ IL-23 cells were prepared at 2×10^5 cells/ml for adding 5000 cell/well and incubate plates containing compounds+cells for 1 hour at 37° C. Prepare IL-23 (treatment at final conc. 0.1 ng/mL) during incubation and add 2 ul per well of prepared cytokine in media to appropriate wells. The plate is incubated for overnight at 37° C. The next day, QUANTI-Blue solution is prepared. 18 ul of QUANTI-Blue solution per well is added into a new 384-well clear flat bottom plate, then add 2 ul of induced and treated HEK-Blue cell supernatant from overnight plate. Incubate the plate at 37° C. for 2 hours and determine SEAP levels.

[2] = target: T1, N-terminal His-tagged TYK2 pseudokinase domain (Homo sapiens, UniProt P29597); assay: TYK2 JH2 domain SPA binding assay; conditions: displacement of H3 probe (20 nM), 30 min room temperature; class symbols
T1 construct: the N-terminal His-tagged TYK2 pseudokinase domain; His (N); purchased Pharmaron
Experimental: TYK2 JH2 Domain Binding Assay
After incubating at room temperature for 30 min, the inhibition was calculated by the displacement of [3H] 3 binding as determined by scintillation counting. Dose-response curves were generated to determine the concentration required to inhibit H3 probe binding by […] (IC50).

[3] = HEK-Blue IL-23, HEK-Blue IL-23 cells

T1 sequence (P29597 589-875 limits assumed): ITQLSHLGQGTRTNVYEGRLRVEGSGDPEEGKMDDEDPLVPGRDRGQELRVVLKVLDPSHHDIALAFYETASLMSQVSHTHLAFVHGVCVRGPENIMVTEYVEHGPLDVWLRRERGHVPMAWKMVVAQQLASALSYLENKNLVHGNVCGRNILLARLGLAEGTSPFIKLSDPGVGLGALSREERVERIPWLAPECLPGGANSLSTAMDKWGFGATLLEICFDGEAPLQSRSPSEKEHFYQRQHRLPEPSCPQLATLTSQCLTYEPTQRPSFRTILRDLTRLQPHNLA

Compound	IC50 [2] [nM]	IC50 ([1]; HEK-Blue IL-23 cells) [nM]	IC50 [1, 3] [nM]
CNc1cc(Nc2cccc3c2OCCC3)nn2c(C(=O)NC(C)c3ncco3)cnc12 (single isomer, unassigned) [Compound 22b]	< 10	< 10	
CNc1cc(Nc2cccc3c2OCCC3)nc2c(C(=O)NC(C)c3ncco3)cnn12 (single isomer, unassigned) [Compound 23a]	100 to 1000	≥ 1000	
CNc1cc(Nc2cccc3c2OCCC3)nc2c(C(=O)NC(C)c3ncco3)cnn12 (single isomer, unassigned) [Compound 23b]	< 10	10 to 100	
CNc1cc(Nc2cccn(-c3ccccn3)c2=O)nc2c(C(=O)NC(C)c3ncco3)cnn12 (single isomer, unassigned) [Compound 36b]	10 to 100	10 to 100	
CNc1cc(Nc2cccn(-c3ccn(C)n3)c2=O)nn2c(C(=O)NC(C)c3ncco3)cnc12 (single isomer, unassigned) [Compound 49a]	10 to 100	< 10	
CNc1cc(Nc2cccn(-c3ccn(C)n3)c2=O)nn2c(C(=O)NC(C)c3ncco3)cnc12 (single isomer, unassigned) [Compound 49b]	> 1000	≥ 1000	
CNc1cc(Nc2cccn(CC3CCCO3)c2=O)nn2c(C(=O)N[C@@H]3C[C@H]4CCO[C@H]43)cnc12 (single isomer, unassigned) [Compound 62b]	10 to 100	10 to 100	
[2H]C([2H])([2H])Nc1cc(Nc2cccn(C3CCCC4(COC4)C3)c2=O)nn2c(C(=O)N[C@@H]3C[C@H]4CCO[C@H]43)cnc12 (single isomer, unassigned) [Compound 68a]	10 to 100		10 to 100
[2H]C([2H])([2H])Nc1cc(Nc2cccn(C3CCCC4(COC4)C3)c2=O)nn2c(C(=O)N[C@@H]3C[C@H]4CCO[C@H]43)cnc12 (single isomer, unassigned) [Compound 68b]	10 to 100	< 10	
[2H]C([2H])([2H])Nc1cc(Nc2cccn(C3CCCC4(COC4)C3)c2=O)nn2c(C(=O)N[C@@H]3C[C@@H]3F)cnc12 (single isomer, unassigned) [Compound 75a]	100 to 1000	100 to 1000	
CNc1cc(Nc2cccn(C3C[C@H]4CC[C@@H](C3)O4)c2=O)nn2c(C(=O)N[C@@H]3C[C@@H]3F)cnc12 (single isomer, unassigned) [Compound 79a]	10 to 100		10 to 100
CNc1cc(Nc2cccn(C3C[C@H]4CC[C@@H](C3)O4)c2=O)nn2c(C(=O)N[C@@H]3C[C@@H]3F)cnc12 (single isomer, unassigned) [Compound 79b]	10 to 100	< 10	
[2H]C([2H])([2H])OC1(C)CC(n2cccc(Nc3cc(NC)c4ncc(C(=O)N[C@@H]5C[C@H]6CCO[C@H]65)n4n3)c2=O)C1 (single isomer, unassigned) [Compound 93a]	10 to 100		10 to 100
[2H]C([2H])([2H])OC1(C)CC(n2cccc(Nc3cc(NC)c4ncc(C(=O)N[C@@H]5C[C@H]6CCO[C@H]65)n4n3)c2=O)C1 (single isomer, unassigned) [Compound 93b]	10 to 100	10 to 100	
[2H]C([2H])([2H])Nc1cc(Nc2cccn(C3CC4OCCC43)c2=O)nn2c(C(=O)N[C@@H]3C[C@H]4CCO[C@H]43)cnc12 (single isomer, unassigned) [Compound 94a]	10 to 100		10 to 100
CNc1cc(Nc2cccn([C@@H]3C[C@H]4CCO[C@H]43)c2=O)nn2c(C(=O)NC3CCC4CCOC43)cnc12 (single isomer, unassigned) [Compound 95a]	10 to 100	< 10	
CNc1cc(Nc2cccn([C@@H]3C[C@H]4CCO[C@H]43)c2=O)nn2c(C(=O)NC3CCC4CCOC43)cnc12 (single isomer, unassigned) [Compound 95b]	> 1000	≥ 1000	
[2H]C([2H])([2H])Nc1cc(Nc2cccn(C3CC4(CCOC4)C3)c2=O)nn2c(C(=O)N[C@@H]3C[C@H]4CCO[C@H]43)cnc12 (single isomer, unassigned) [Compound 96a]	10 to 100		10 to 100
[2H]C([2H])([2H])Nc1cc(Nc2cccn(C3CC4(CCOC4)C3)c2=O)nc2c(C(=O)N[C@@H]3C[C@H]4CCO[C@H]43)cnn12 (single isomer, unassigned) [Compound 97a]	10 to 100		10 to 100
[2H]C([2H])([2H])Nc1cc(Nc2cccn(C3CC4(CCCO4)C3)c2=O)nn2c(C(=O)N[C@@H]3C[C@H]4CCO[C@H]43)cnc12 (single isomer, unassigned) [Compound 98a]	10 to 100		10 to 100
[2H]C([2H])([2H])Nc1cc(Nc2cccn(C3CC4(CCCO4)C3)c2=O)nn2c(C(=O)N[C@@H]3C[C@H]4CCO[C@H]43)cnc12 (single isomer, unassigned) [Compound 98b]	10 to 100	10 to 100	
[2H]C([2H])([2H])Nc1cc(Nc2cccn(C3CC4OCCC43)c2=O)nn2c(C(=O)N[C@@H]3C[C@@H]3F)cnc12 (single isomer, unassigned) [Compound 101b]	10 to 100	10 to 100	
[2H]C([2H])([2H])Nc1cc(Nc2cccn(C3CC4(CCOC4)C3)c2=O)nn2c(C(=O)N[C@@H]3C[C@@H]3F)cnc12 (single isomer, unassigned) [Compound 102a]	10 to 100		10 to 100
[2H]C([2H])([2H])Nc1cc(Nc2cccn(C3CC4(CCOC4)C3)c2=O)nn2c(C(=O)N[C@@H]3C[C@@H]3F)cnc12 (single isomer, unassigned) [Compound 102b]	10 to 100	10 to 100	
[2H]C([2H])([2H])Nc1cc(Nc2cccn(C3CC4(CCOC4)C3)c2=O)nc2c(C(=O)N[C@@H]3C[C@@H]3F)cnn12 (single isomer, unassigned) [Compound 103a]	10 to 100		10 to 100
[2H]C([2H])([2H])Nc1cc(Nc2cccn(C3CC4(CCOC4)C3)c2=O)nc2c(C(=O)N[C@@H]3C[C@@H]3F)cnn12 (single isomer, unassigned) [Compound 103b]	100 to 1000	10 to 100	
CNc1cc(Nc2cccn(C3CC4CCOC43)c2=O)nn2c(C(=O)N[C@@H]3C[C@@H]3F)cnc12 (single isomer, unassigned) [Compound 105b]	100 to 1000	10 to 100	

Further lines, with some results ahead:

IC50 [2] [nM]	Compound	IC50 ([1]; HEK-Blue IL-23 cells) [nM]	IC50 [1, 3] [nM]
100 to 1000	CNc1cc(Nc2cccn(CC3CCCO3)c2=O)nn2c(C(=O)N[C@@H]3C[C@H]4CCO[C@H]43)cnc12 (single isomer, unassigned) [Compound 62a]		10 to 100
10 to 100	[2H]C([2H])([2H])Nc1cc(Nc2cccn(C3CCCC4(COC4)C3)c2=O)nn2c(C(=O)N[C@@H]3C[C@@H]3F)cnc12 (single isomer, unassigned) [Compound 75b]	10 to 100	
10 to 100	CNc1cc(Nc2cccn([C@H]3C[C@H](OC)C3)c2=O)nn2c(C(=O)NC3CCC4CCOC43)cnc12 (single isomer, unassigned) [Compound 88a]	< 10	
100 to 1000	CNc1cc(Nc2cccn([C@H]3C[C@H](OC)C3)c2=O)nn2c(C(=O)NC3CCC4CCOC43)cnc12 (single isomer, unassigned) [Compound 88b]	100 to 1000	
10 to 100	CNc1cc(Nc2cccn(C3CC(C)(OC)C3)c2=O)nn2c(C(=O)N[C@@H]3C[C@H]4CCO[C@H]43)cnc12 (single isomer, unassigned) [Compound 92a]		10 to 100
10 to 100	[2H]C([2H])([2H])Nc1cc(Nc2cccn(C3CC4OCCC43)c2=O)nn2c(C(=O)N[C@@H]3C[C@H]4CCO[C@H]43)cnc12 (single isomer, unassigned) [Compound 94b]	10 to 100	
10 to 100	[2H]C([2H])([2H])Nc1cc(Nc2cccn(C3CC4(CCOC4)C3)c2=O)nn2c(C(=O)N[C@@H]3C[C@H]4CCO[C@H]43)cnc12 (single isomer, unassigned) [Compound 96b]	10 to 100	
10 to 100	[2H]C([2H])([2H])Nc1cc(Nc2cccn(C3CC4(CCOC4)C3)c2=O)nc2c(C(=O)N[C@@H]3C[C@H]4CCO[C@H]43)cnn12 (single isomer, unassigned) [Compound 97b]	10 to 100	
10 to 100	[2H]C([2H])([2H])Nc1cc(Nc2cccn(C3CC4OCCC43)c2=O)nn2c(C(=O)N[C@@H]3C[C@@H]3F)cnc12 (single isomer, unassigned) [Compound 101a]		10 to 100
10 to 100	[2H]C([2H])([2H])Nc1cc(Nc2cccn(C3CC4(CCCO4)C3)c2=O)nn2c(C(=O)N[C@@H]3C[C@@H]3F)cnc12 (single isomer, unassigned) [Compound 104a]		10 to 100
10 to 100	[2H]C([2H])([2H])Nc1cc(Nc2cccn(C3CC4(CCCO4)C3)c2=O)nn2c(C(=O)N[C@@H]3C[C@@H]3F)cnc12 (single isomer, unassigned) [Compound 104b]	10 to 100	
100 to 1000	CNc1cc(Nc2cccn(C3CC4CCOC43)c2=O)nn2c(C(=O)N[C@@H]3C[C@@H]3F)cnc12 (single isomer, unassigned) [Compound 105a]		10 to 100
